Measured values reported in the SangsterLogP compilation.

Experiments:
[1] = method code SF-AS, from Wang, W.; Wang, L.; Tian, L.; Zhang, Z.; Qiu, J. (1987). Partition coefficients of the intermediate of pyrethroid in n-octanol/water system. Huazhong Gongxueyuan Xuebao, 15(1)135-137.

Row | logP [1] | logP | Structure (SMILES)
1 | 1.28 | – | COCc1ccc(COC)cc1
2 | 2.41 | – | C=CCOCc1ccccc1
3 | 3.41 | – | CC(C)C(C#N)c1ccc(Cl)cc1 (stereo not given)
4 | – | 1.23 | COCc1ccc(C#N)cc1
5 | 2.16 | – | CCOCc1ccccc1
6 | 1.23 | – | COCc1ccc(CC#N)cc1
7 | 1.67 | – | COCc1ccccc1

Row | Structure (SMILES) | logP [1] | logP
8 | N#CCc1ccc(Cl)cc1 | 2.47 | –
9 | ClCc1ccc(Cl)cc1 | 3.18 | –
10 | Cc1ccc(CC#N)cc1 | 1.67 | –
